The values that follow come from patent publication US8013156B2 (Exelixis, Inc., priority 2003, dated 2011).

Usually IC50 stands for the concentration needed to halve the response being measured. Higher therefore signals lower potency.

Some results are limits rather than exact numbers.

Chain of Tie-2 (Q02763 23-1124): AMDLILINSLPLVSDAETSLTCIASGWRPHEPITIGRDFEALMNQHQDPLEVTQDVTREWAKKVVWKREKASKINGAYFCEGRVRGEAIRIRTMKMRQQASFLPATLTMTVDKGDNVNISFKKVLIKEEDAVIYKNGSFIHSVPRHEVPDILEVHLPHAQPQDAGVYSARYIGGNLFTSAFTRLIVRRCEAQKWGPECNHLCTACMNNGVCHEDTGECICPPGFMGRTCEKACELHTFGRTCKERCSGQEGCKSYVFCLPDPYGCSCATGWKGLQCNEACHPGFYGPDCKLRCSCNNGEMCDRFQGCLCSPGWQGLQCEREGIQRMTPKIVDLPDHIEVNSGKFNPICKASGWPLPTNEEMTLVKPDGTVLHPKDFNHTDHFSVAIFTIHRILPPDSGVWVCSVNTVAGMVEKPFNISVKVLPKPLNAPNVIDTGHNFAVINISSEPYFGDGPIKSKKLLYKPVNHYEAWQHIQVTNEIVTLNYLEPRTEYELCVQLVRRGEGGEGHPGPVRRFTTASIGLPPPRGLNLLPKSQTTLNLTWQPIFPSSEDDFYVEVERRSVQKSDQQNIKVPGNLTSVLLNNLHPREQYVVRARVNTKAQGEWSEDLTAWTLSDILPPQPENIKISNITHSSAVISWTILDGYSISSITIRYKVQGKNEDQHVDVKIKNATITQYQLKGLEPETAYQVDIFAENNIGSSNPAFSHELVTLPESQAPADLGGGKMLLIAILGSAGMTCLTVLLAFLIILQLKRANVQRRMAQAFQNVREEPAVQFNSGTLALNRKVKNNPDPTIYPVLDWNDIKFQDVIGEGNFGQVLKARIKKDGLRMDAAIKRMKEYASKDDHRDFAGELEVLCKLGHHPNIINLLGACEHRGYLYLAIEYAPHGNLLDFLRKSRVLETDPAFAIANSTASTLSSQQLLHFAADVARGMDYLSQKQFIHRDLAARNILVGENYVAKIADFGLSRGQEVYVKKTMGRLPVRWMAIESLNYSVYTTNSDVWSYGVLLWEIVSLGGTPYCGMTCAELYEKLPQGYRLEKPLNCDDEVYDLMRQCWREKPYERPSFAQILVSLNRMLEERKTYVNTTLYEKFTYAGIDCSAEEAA

This experiment has as its target Tie-2 (Homo sapiens, UniProt Q02763). Nature of the experiment: Tie-2 tyrosine kinase activity assay (luciferase/luciferin ATP consumption with pEY substrate, or 33P-ATP incorporation). Type of experiment: biochemical. Particulars: human enzyme Tie-2. The method in brief:
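Values are IC50 categories (A <50 nM to D ≥10,000 nM), with Ki obtainable by fitting rates to a tight-binding model. Assay formats: 33P-ATP phosphate transfer to adsorbed generic substrate counted by scintillation, or luciferase-detected ATP depletion using pEY.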
`CCc1cc(NC(=O)N2CCN(c3ncccc3OCc3ccnc(N)n3)CC2)cc(C(F)(F)F)c1` [Example 200, 4-(3-{[(2-aminopyrimidin-4-yl)methyl]oxy}pyridin-2-yl)-N-[3-ethyl-5-(trifluoromethyl)phenyl]piperazine-1-carboxamide]: the half-inhibitory concentration (IC50) was less than 50 nM.
Under `CCc1cccc(NC(=O)N2CCN(c3nccnc3OCc3ccncc3)CC2)c1` [Example 92, N-(3-ethylphenyl)-4-{3-[(pyridin-4-ylmethyl)oxy]pyrazin-2-yl}piperazine-1-carboxamide] stands less than 50 nM; under `CN1CCN(CC(=O)Nc2cc(COc3cccnc3N3CCN(C(=O)Nc4cc(C(F)(F)F)cc(C(F)(F)F)c4)CC3)ccn2)CC1` [Example 173, N-[3,5-bis(trifluoromethyl)phenyl]-4-(3-{[(2-{[(4-methylpiperazin-1-yl)acetyl]amino}pyridin-4-yl)methyl]oxy}pyridin-2-yl)piperazine-1-carboxamide], less than 50 nM.
The same measure for `O=C(Nc1cccc(C(F)(F)F)c1)N1CCN(c2nsnc2OCc2ccncc2)CC1` [Example 9]: 50 to 1000 nM; for `Nc1cc(COc2nsnc2N2CCN(S(=O)(=O)c3cc(C(F)(F)F)cc(C(F)(F)F)c3)CC2)ccn1` [Example 148, 4-({[4-(4-{[3,5-bis(trifluoromethyl)phenyl]sulfonyl}piperazin-1-yl)-1,2,5-thiadiazol-3-yl]oxy}methyl)pyridin-2-amine]: not below 10000 nM; for `CN(C)CC(=O)Nc1cc(COc2nsnc2N2CCN(C(=O)Nc3cc(C(F)(F)F)cc(C(F)(F)F)c3)CC2)ccn1` [Example 150, N-[3,5-bis(trifluoromethyl)phenyl]-4-{4-[({2-[(N,N-dimethylglycyl)amino]pyridin-4-yl}methyl)oxy]-1,2,5-thiadiazol-3-yl}piperazine-1-carboxamide]: less than 50 nM.
Under `CNC(=O)N1CCN(c2ncccc2OCc2ccnc(NC(=O)CN3CCN(C)CC3)c2)CC1` [Example 191, N-methyl-4-(3-{[(2-{[(4-methylpiperazin-1-yl)acetyl]amino}pyridin-4-yl)methyl]oxy}pyridin-2-yl)piperazine-1-carboxamide] stands 1000 to 10000 nM.
Consider `CCc1ccc(F)c(NC(=O)N2CCN(c3nsnc3OCc3ccnc(N)n3)CC2)c1` [Example 222, 4-(4-{[(2-aminopyrimidin-4-yl)methyl]oxy}-1,2,5-thiadiazol-3-yl)-N-(5-ethyl-2-fluorophenyl)piperazine-1-carboxamide], for which the IC50 was in the range of 50 to 1000 nM.
The same measure for `O=C(Nc1cccc(C(F)(F)F)c1)N1CCCN(c2nsnc2OCc2ccncc2)CC1` [Example 45, 4-{4-[(pyridin-4-ylmethyl)oxy]-1,2,5-thiadiazol-3-yl}-N-[3-(trifluoromethyl)phenyl]-1,4-diazepane-1-carboxamide]: 1000 to 10000 nM; for `CC(C)c1cccc(NC(=O)N2CCN(c3nsnc3OCc3ccnc(N)n3)CC2)c1` [Example 261, 4-(4-{[(2-aminopyrimidin-4-yl)methyl]oxy}-1,2,5-thiadiazol-3-yl)-N-[3-(1-methylethyl)phenyl]piperazine-1-carboxamide]: less than 50 nM.
The same measure for `CCc1cc(NC(=O)N2CCN(c3nsnc3OCc3ccnc(N)n3)CC2)ccc1F` [Example 252, 4-(4-{[(2-aminopyrimidin-4-yl)methyl]oxy}-1,2,5-thiadiazol-3-yl)-N-(3-ethyl-4-fluorophenyl)piperazine-1-carboxamide]: 50 to 1000 nM; for `CCCNc1cc(COc2nsnc2N2CCN(C(=O)Nc3cc(C(F)(F)F)cc(C(F)(F)F)c3)CC2)ccn1` [Example 107, N-[3,5-bis(trifluoromethyl)phenyl]-4-[4-({[2-(propylamino)pyridin-4-yl]methyl}oxy)-1,2,5-thiadiazol-3-yl]piperazine-1-carboxamide]: 50 to 1000 nM.
`Cc1ccc(OCc2ccnc(N)n2)c(N2CCN(C(=O)Nc3cc(C(F)(F)F)cc(C(F)(F)F)c3)CC2)n1` [Example 228, 4-(3-{[(2-aminopyrimidin-4-yl)methyl]oxy}-6-methylpyridin-2-yl)-N-[3,5-bis(trifluoromethyl)phenyl]piperazine-1-carboxamide] registered an IC50 of less than 50 nM.
Under `O=C(Nc1cccc(C(F)(F)F)c1)NC1CCN(c2nccnc2OCc2ccncc2)C1` (centres unmarked) [Example 66, N-(1-{3-[(pyridin-4-ylmethyl)oxy]pyrazin-2-yl}pyrrolidin-3-yl)-N′-[3-(trifluoromethyl)phenyl]urea] stands 50 to 1000 nM; under `C[C@H]1CN(c2nccnc2OCc2ccncc2)CCN1C(=O)Nc1cc(C(F)(F)F)cc(C(F)(F)F)c1` [Example 80, (2S)-N-[3,5-bis(trifluoromethyl)phenyl]-2-methyl-4-{3-[(pyridin-4-ylmethyl)oxy]pyrazin-2-yl}piperazine-1-carboxamide], less than 50 nM.
Under `CSc1cccc(NC(=O)N2CCN(c3nsnc3OCc3ccnc(N)n3)CC2)c1` [Example 266, 4-(4-{[(2-aminopyrimidin-4-yl)methyl]oxy}-1,2,5-thiadiazol-3-yl)-N-[3-(methylthio)phenyl]piperazine-1-carboxamide] stands 50 to 1000 nM.
Under `Nc1nccc(COc2cccnc2N2CCN(C(=O)Nc3cccc(F)c3)CC2)n1` [Example 186, 4-(3-{[(2-aminopyrimidin-4-yl)methyl]oxy}pyridin-2-yl)-N-(3-fluorophenyl)piperazine-1-carboxamide] stands 50 to 1000 nM; under `Nc1nccc(COc2cccnc2N2CCN(C(=O)Nc3cc(Cl)ccc3F)CC2)n1` [Example 193, 4-(3-{[(2-aminopyrimidin-4-yl)methyl]oxy}pyridin-2-yl)-N-(5-chloro-2-fluorophenyl)piperazine-1-carboxamide], 50 to 1000 nM.
`O=C(Nc1cc(COc2nsnc2N2CCN(C(=O)Nc3cc(C(F)(F)F)cc(C(F)(F)F)c3)CC2)ccn1)OCCN1CCCC1` [Example 140, 2-pyrrolidin-1-ylethyl {4-[({4-[4-({[3,5-bis(trifluoromethyl)phenyl]amino}carbonyl)piperazin-1-yl]-1,2,5-thiadiazol-3-yl}oxy)methyl]pyridin-2-yl}carbamate] gave an IC50 of less than 50 nM.
The same measure for `CCc1cccc(NC(=O)N2CCN(c3ncccc3OCc3ccnc(NC(=O)CN4CCN(C)CC4)c3)CC2)c1` [Example 171, N-(3-ethylphenyl)-4-(3-{[(2-{[(4-methylpiperazin-1-yl)acetyl]amino}pyridin-4-yl)methyl]oxy}pyridin-2-yl)piperazine-1-carboxamide]: less than 50 nM; for `Nc1nccc(COc2cccnc2N2CCN(C(=O)Nc3cccc(C(F)(F)F)c3)CC2)n1` [Example 174, 4-(3-{[(2-aminopyrimidin-4-yl)methyl]oxy}pyridin-2-yl)-N-[3-(trifluoromethyl)phenyl]piperazine-1-carboxamide]: less than 50 nM.
The same measure for `COC(=O)Nc1cc(COc2cccnc2N2CCN(C(=O)Nc3cccc(OC)c3)CC2)ccn1` [Example 165, methyl {4-[({2-[4-({[3-(methyloxy)phenyl]amino}carbonyl)piperazin-1-yl]pyridin-3-yl}oxy)methyl]pyridin-2-yl}carbamate]: 50 to 1000 nM; for `CCc1cccc(NC(=O)Nc2cc(COc3cccnc3N3CCN(C(=O)Nc4cccc(CC)c4)CC3)ccn2)c1` [Example 170, N-(3-ethylphenyl)-4-[3-({[2-({[(3-ethylphenyl)amino]carbonyl}amino)pyridin-4-yl]methyl}oxy)pyridin-2-yl]piperazine-1-carboxamide]: less than 50 nM.
